Assay results reported in US3952061A, “Method of isomerizing humulone to isohumulone by catalytic acceleration with metal salts” (Atlantic Research Institute Limited, priority 1967, dated 1976).
Where two headings read alike, the source gives them in different places.

Tests used:
tubercular bacteria = details: tests in vitro; cited from earlier work
[1] = format: physicochemical
Procedure: The acceleration of the isomerization in accordance with the present invention is particularly striking at pH values of between 4 and 8. […] For the characterization of this acceleration of the conversion of humulone to isohumulone, reaction-kinetic experiments at different temperatures are shown in the accompanying figures. As reaction media there is used an 0.1 and 0.025 molar sodium acetate solution to which there are added in each case the metal salts in concentrations of 10^^-3 mol/liter and 10^^-4 mol/liter, respectively. Furthermore, pure metal salt solutions of higher concentration (0.025 mol/liter) (FIG. 2) of different pH were also used for the conversion of the humulone.
By way of comparison, the slow isomerization reaction in pure phosphate buffers is also recorded. It should be emphasized that the sodium acetate in the reaction solutions is not necessary for the reaction itself, but merely serves to maintain the pH constant. […] For FIGS. 1 and 2, the logarithm of the humulone extinction measured in a spectral photometer was plotted against the reaction time (in accordance with the law of Lambert and Beer, the extinction is directly proportional to the concentration).

CC(C)=CCC(=O)C1(O)C(O)=C(C(=O)CC(C)C)C(=O)C1CC=C(C)C (stereo not drawn) [isohumulone]
activity compared with Conteben (tubercular bacteria): practically just as active as Conteben

humulone
Half-Life about (bacl2 solution, pH 6.9): ~9 min | Half-Life about (cacl2 solution, pH 6.6): ~2 min | Half-Life about (cecl3 solution, pH 4.2): ~10 min | Half-Life about (niso4 solution, pH 4.7): ~0.7 min | Half-Life about (phosphate buffer, pH 5.5): ~100 min | Half-Life about (phosphate buffer, pH 7.2): ~100 min | Half-Life ([1]; acetate buffer + cacl2, pH 8): 22 min | Half-Life ([1]; acetate buffer + cdcl2, pH 7): 5.9 min | Half-Life ([1]; acetate buffer + mgcl2, pH 7.5): 7.3 min | Half-Life ([1]; acetate buffer + mgcl2, pH 8): 2.6 min | Half-Life ([1]; acetate buffer + mncl2, pH 7.5): 3.2 min | Half-Life ([1]; acetate buffer + niso4, pH 6.5): 2.5 min | Half-Life ([1]; acetate buffer, pH 7): 360 min | Half-Life ([1]; phosphate buffer, pH 5.5): 120 min
